A short description of data set [1]: Side effects in mice, mite study (Example 2B). The class given is in vivo. The conditions noted are these: topical 100 ppm, oral or subcutaneous 10 mg/kg, twice 7 days apart. Here is the method: The mice were divided into groups of three, and treated topically with 100 ppm body weight, orally with 10 mg/kg body weight, or subcutaneously with 10 mg/kg body weight of Compound 11-1, fipronil (positive control), or nothing (negative control). This treatment was then repeated 7 days later. The infestation rate per mouse (“+”=low infestation rate, “++”=medium infestation rate, “+++”=high infestation rate) was assessed repeatedly on days 1, 6, 9, 13, and 23. Efficacy was defined as the inhibition of the mite infestation rate on treated mice relative to the negative control group.

A short description of data set [2]: Side effects in dogs (Example 5). The class given is in vivo. The settings on record: beagles; oral 20 mg/kg or topical 200 ppm. Here is the method:
On Day Zero, one group of 4 beagles was treated orally with gelatin capsules containing 20 mg/kg body weight of […]. Another group of 4 beagles was treated topically by washing with 2 L of solution containing 200 ppm body weight of […] dissolved in DMF-premix/tap water (1:100, based on volume). Finally, a group of 3 beagles remained untreated as the negative control. Two days before treatment on Day Zero, all the beagles were each infested with approximately 80 unfed adult fleas (C. felis) and approximately 60 unfed adult ticks (R. sanguineus). The parasite burden of each beagle was assessed on Day 2 (approximately 48 hr after the treatment) by removing and counting the fleas and ticks. Fleas and ticks were classified according to vitality (fleas: dead or alive; ticks: dead or alive, and engorged or not engorged). The efficacy was calculated from the mean number of vital fleas and ticks in the treated group (Mt) relative to the mean number of vital fleas and ticks in the untreated control group (Mc) using following formula: […]

Results on 1 compound are retold here after patent US20240239759A1, “ISOXAZOLINE COMPOSITIONS AND THEIR USE AS ANTIPARASITICS” (Intervet Inc., priority 2007, published 2024).

Regarding `Cc1cc(C2=NOC(c3cc(Cl)cc(Cl)c3)(C(F)(F)F)C2)ccc1C(=O)NCC(=O)NCC(F)(F)F` (racemic) [Compound 11-1, 4-[5-(3,5-dichlorophenyl)-5-trifluoromethyl-4,5-dihydroisoxazol-3-yl]-2-methyl-N-[(2,2,2-trifluoro-ethylcarbamoyl)-methyl]-benzamide], the Side effects entry in data set [1] and in data set [2] was “No side effects were observed” in each case.
